# Key:
# physchem = conditions: water
# Text: Since pediatric patients are the target patient population for the proposed cholestatic disease, an oral solution formulation was selected due to its flexibility for dose adjustment based on patient's body weight and the preference for this type of formulation in young children.
# [1] = Maralixibat clinical studies in ALGS (LUM001-304, LUM001-303, LUM001-305): pruritus and concomitant antipruritic medication; assay type: in vivo, human
# Text: In Study LUM001-304, participants were not allowed to make any changes to their antipruritic therapy up to Week 22. In Studies LUM001-301 and LUM001-302, no changes to the antipruritic comedications were allowed throughout the period of the primary analysis up to Week 13. Therefore, across all studies, participants had to be on stable antipruritic medication doses (except for weight-based dose adjustments) throughout the randomized controlled periods. […] Participants in LUM001-302 received either 140 μg/kg/day or 280 μg/kg/day of maralixibat (as maralixibat chloride). The long-term LUM001-303 dosing was 280 μg/kg QD and 280 μg/kg BID. The long term LUM001-305 dosing was at 280 μg/kg/day. After these stable-dosing periods in the long-term extension studies, changes in antipruritic medications were allowed. Weight-based dose adjustments in antipruritic medications were anticipated over the course of a 5-year study.
# [2] = Maralixibat open label study in PFIC (LUM001-501): pruritus and concomitant antipruritic medication; assay type: in vivo, human
# Text: In an open label study to evaluate efficacy and long term safety of maralixibat (LUM001) in the treatment of Cholestatic Liver Disease in patients with Progressive Familial Intrahepatic Cholestasis (PFIC) (Study LUM001-501), participants were not allowed to make any changes to their antipruritic therapy during the 13-week treatment period. No new medications used to treat pruritus were to be added during the 13-week treatment period. Therefore, participants had to be on stable antipruritic medication doses (except for weight-based dose adjustments) during the 13-week treatment period. In the long-term exposure period, changes in antipruritic medications were allowed.
# [3] = Solubility of MRX drug substance in water and commercially available vehicles, visual observation; assay type: physicochemical; conditions: Water; 0.02 mg/mL
# Experimental: For early pediatric clinical studies, the desired maralixibat solution concentration was in the range of 0.02 to 20 mg/mL (concentration based on maralixibat chloride). Initial formulation studies were conducted to determine the solubility and stability of MRX drug substance in three liquid oral dosing vehicles: water, Pedialyte® (an oral rehydration preparation), and Ora-Sweet® SF (a sugar-free, alcohol-free syrup vehicle for oral preparations). Using these three vehicles, samples were produced with the MRX drug substance at three different concentrations (0.02 mg/mL, 2.0 mg/mL, and 4.0 mg/mL concentrations based on maralixibat chloride). A vortex mixer was used to disperse the drug within the liquid vehicle; drug dissolution status was then visually checked and recorded as in Table 4.
# MDR2−/− mice = test: MDR2−/− mouse model of sclerosing cholangitis; assay type: in vivo
# Experimental: Methods: 30-day-old female MDR2−/− mice (FVB background) were treated daily for 14 days by orogastric gavage with either vehicle control (Kolliphor and CMC), 100 mg/kg/day bezafibrate (pan-PPAR agonist), 100 mg/kg/day fenofibrate (PPARα agonist), 10 mg/kg seladelpar (PPARδ agonist), 0.008% SC-435 (non-absorbable IBAT inhibitor) admixed to chow, or a combination of SC-435 and PPAR agonists.
# [4] = Study LUM001-303, long-term extension, of the 19 participants
# [5] = Study LUM001-305, long term extension, of the 34 participants
# [6] = female MDR2−/− mice, daily for 14 days
smiles,measurement,setting,value
CCCCC1(CCCC)CS(=O)(=O)c2ccc(N(C)C)cc2[C@@H](c2ccc(OCc3ccc(C[N+]45CCN(CC4)CC5)cc3)cc2)[C@H]1O [maralixibat chloride],solubility,physchem,> 100 mg/mL
same,pruritus scores,"[1]; ALGS studies, long-term follow-up",consistently improved
same,participants who experienced a decrease in concomitant antipruritic medication,[1]; [4],2 participants
same,participants who experienced an increase in concomitant antipruritic medication,[1]; [4],Five
same,participants with no or minimal change in concomitant antipruritic medication,[1]; [4],12 participants
same,pruritus reduction and proportion of participants reducing concomitant antipruritic medication,"[1]; Study LUM001-304, 400 μg/kg dose, compared with supporting ALGS studies at lower doses",greatest pruritus reduction and the largest proportion of participants reducing concomitant antipruritic medication
same,participants who experienced a decrease in concomitant antipruritic medication,"[1]; Study LUM001-304, after Week 22, long-term extension, of the 29 participants",10 participants
same,participants who experienced a decrease in concomitant antipruritic medication,[1]; [5],10 participants
same,participants who experienced an increase in concomitant antipruritic medication,[1]; [5],Seven
same,participants with no or minimal change in concomitant antipruritic medication,[1]; [5],17 participants
same,pruritus control after discontinuing one or more antipruritic medications,"[2]; 5 exemplary PFIC patients, FIGS. 3A-3E",still maintain control of pruritus
same,participants with a decrease in dose or discontinuation of antipruritic medications,"[2]; Study LUM001-501, N=33",13 participants
same,participants with an increase in dose of antipruritic medication,"[2]; Study LUM001-501, N=33",5 participants
same,"pruritus, ItchRO(Obs) scores","[2]; Study LUM001-501, sustained period of follow-up",general improvements in pruritus
same,Solubility Observations,[3],Dissolved Instantly
CCCCC1(CCCC)CS(=O)(=O)c2ccc(N(C)C)cc2[C@@H](c2ccc(OCc3ccc(C[N+]45CCN(CC4)CC5)cc3)cc2)[C@H]1O.[Cl-] [SC-435],serum ALP,"MDR2−/− mice; female MDR2−/− mice (FVB background), daily for 14 days",increased
same,liver to body weight ratio,MDR2−/− mice; [6],attenuated
same,retention of BA in the liver,MDR2−/− mice; [6],significantly reduced
same,serum BA concentrations,MDR2−/− mice; [6],decreased
same,serum TB concentrations,MDR2−/− mice; [6],reduced
same,potency in reducing serum total BA and TB levels,MDR2−/− mice; mouse model of SC,more potent than PPAR agonists
